Source: US20120108557A1, “FLUOROQUINOLONE DERIVATIVES FOR OPHTHALMIC APPLICATIONS” (ALCON RESEARCH, LTD., priority 2008, published 2012)

Columns and labels:
Test in all cases: In vitro antimicrobial activity, agar dilution MIC
Assay type in all cases: cell-based
Acinetobacter baumannii = settings: test organism 26, Acinetobacter baumannii
Experimental: (§1) The activity of the compounds of the present invention was evaluated using an in vitro assay. Microorganisms were prepared from growth on agar media, in broth culture, or from thawed cryopreserved cultures. Fungal cultures were filtered to remove mycelial elements.
(§2) Using Mueller Hinton II Broth, 0.9% saline or other appropriate media, a suspension of each culture was prepared and adjusted to a turbidity equivalent to that of a 0.5 McFarland Standard. (Cultures adjusted to the 0.5 McFarland Standard generally contain approximately 1.0×10^8 CFU/mL). The adjusted suspension for each culture was diluted 1:10 in the appropriate media so that the inoculum concentration approximates 1.0×10^7 CFU/mL.
(§3) The antimicrobial agent to be tested was weighed and diluted with a volume of sterile distilled water calculated to yield the necessary starting concentration. Serial 1:2 dilutions of the antimicrobial agent in sterile distilled water were prepared (approximately 10-12 test concentrations comprise a reasonable experimental range). A known amount of each antimicrobial dilution was combined with an aliquot of agar medium calculated to yield the desired final antimicrobial test concentration and dispensed onto plates.
(§4) The amount of antimicrobial agent to be weighed was determined using the following equation: […]
(§5) Antimicrobial stock solutions were prepared at concentrations 5-10 times the highest concentration to be tested (routinely 1024 μg/mL). […] The stock solution was diluted to appropriate concentration using sterile water to form a working solution. The working solution was diluted two-fold, in sterile water, until the desired concentration is obtained.
(§6) Mueller Hinton II agar was prepared as described by the manufacturer. Mueller Hinton II agar may be supplemented with 5% defibrinated sheep blood for testing streptococci. Agar was added to the serially diluted antimicrobial solution in each container. The solutions were mixed thoroughly and poured into petri dishes (about 25 mL/plate). The pH of the agar at 25° C. should be between 7.2 and 7.4.
(§7) At least one inocula control plate was inoculated (agar medium without antimicrobial agent) from each seed plate before inoculating test plates. Test plates were inoculated starting at the lowest concentration and proceeding to the highest concentration. After all test plates were inoculated, an additional control plate (agar medium without antimicrobial agent) was inoculated. The plates were incubated in a non-CO2 incubator (or CO2 incubator depending on growth requirements); 18-24 hours at 32-35° C. was sufficient for most organisms.
(§8) All inoculation points on the agar surface were examined for the presence of growth as compared to the inoculum control plates. The results were summarized and use to determine Minimal Inhibitory Concentrations (MICs): The MIC is the lowest concentration of the antimicrobial agent which prevents visible growth of the organism (negative score).

Acinetobacter junii = system: Acinetobacter junii
Experimental: as §1, §2, §3, §4, §5, §6, §7, §8

[1] = system: Corynebacterium amycolatum
Experimental: as §1, §2, §3, §4, §5, §6, §7, §8

Enterobacter hormaechei = system: Enterobacter hormaechei
Experimental: as §1, §2, §3, §4, §5, §6, §7, §8

Enterococcus faecalis = system: Enterococcus faecalis
Experimental: as §1, §2, §3, §4, §5, §6, §7, §8

Escherichia coli = system: Escherichia coli
Experimental: as §1, §2, §3, §4, §5, §6, §7, §8

MRSA = system: MRSA
Experimental: as §1, §2, §3, §4, §5, §6, §7, §8

MRSE = system: MRSE
Experimental: as §1, §2, §3, §4, §5, §6, §7, §8

MSSA = settings: test organism 6, MSSA
Experimental: as §1, §2, §3, §4, §5, §6, §7, §8

Morganella morganii = system: Morganella morganii
Experimental: as §1, §2, §3, §4, §5, §6, §7, §8

Pseudomonas aeruginosa = system: Pseudomonas aeruginosa
Experimental: as §1, §2, §3, §4, §5, §6, §7, §8

Serratia marcescens = system: Serratia marcescens
Experimental: as §1, §2, §3, §4, §5, §6, §7, §8

Staphylococcus aureus = system: Staphylococcus aureus
Experimental: as §1, §2, §3, §4, §5, §6, §7, §8

[2] = system: Staphylococcus epidermidis
Experimental: as §1, §2, §3, §4, §5, §6, §7, §8

[3] = system: Staphylococcus haemolyticus
Experimental: as §1, §2, §3, §4, §5, §6, §7, §8

[4] = system: Stenotrophomonas maltophilia
Experimental: as §1, §2, §3, §4, §5, §6, §7, §8

Streptococcus mitis = system: Streptococcus mitis
Experimental: as §1, §2, §3, §4, §5, §6, §7, §8

Streptococcus pneumoniae = system: Streptococcus pneumoniae
Experimental: as §1, §2, §3, §4, §5, §6, §7, §8

CN1CCCC2CN(c3cc4c(cc3F)c(=O)c(C(=O)O)cn4C3CC3)CC21 (stereo not drawn) [Compound 2]
Minimal Inhibitory Concentration (MIC) (Acinetobacter baumannii): ≦0.25 | Minimal Inhibitory Concentration (MIC) (Acinetobacter junii; test organism 27, Acinetobacter junii): ≦0.25 | Minimal Inhibitory Concentration (MIC) (Acinetobacter junii; test organism 28, Acinetobacter junii): 0.25 | Minimal Inhibitory Concentration (MIC) (Acinetobacter junii; test organism 29, Acinetobacter junii): >4 | Minimal Inhibitory Concentration (MIC) ([1]; test organism 24, Corynebacterium amycolatum): ≦0.03 | Minimal Inhibitory Concentration (MIC) ([1]; test organism 25, Corynebacterium amycolatum): >4 | Minimal Inhibitory Concentration (MIC) (Enterobacter hormaechei; test organism 30, Enterobacter hormaechei): 0.25 | Minimal Inhibitory Concentration (MIC) (Enterobacter hormaechei; test organism 31, Enterobacter hormaechei): >4 | Minimal Inhibitory Concentration (MIC) (Enterococcus faecalis; test organism 15, Enterococcus faecalis): 1 | Minimal Inhibitory Concentration (MIC) (Enterococcus faecalis; test organism 16, Enterococcus faecalis): ≦0.25 | Minimal Inhibitory Concentration (MIC) (Enterococcus faecalis; test organism 17, Enterococcus faecalis): >4 | Minimal Inhibitory Concentration (MIC) (Enterococcus faecalis; test organism 18, Enterococcus faecalis): >2 | Minimal Inhibitory Concentration (MIC) (Escherichia coli; test organism 32, Escherichia coli): 0.25 | Minimal Inhibitory Concentration (MIC) (Escherichia coli; test organism 33, Escherichia coli): ≦0.25 | Minimal Inhibitory Concentration (MIC) (Escherichia coli; test organism 34, Escherichia coli): >4 | Minimal Inhibitory Concentration (MIC) (MRSA; test organism 3, MRSA): >2 | Minimal Inhibitory Concentration (MIC) (MRSA; test organism 4, MRSA): >4 | Minimal Inhibitory Concentration (MIC) (MRSA; test organism 5, MRSA): >2 | Minimal Inhibitory Concentration (MIC) (MRSE; test organism 9, MRSE): >2 | Minimal Inhibitory Concentration (MIC) (MRSE; test organism 10, MRSE): >2 | Minimal Inhibitory Concentration (MIC) (MRSE; test organism 11, MRSE): >4 | Minimal Inhibitory Concentration (MIC) (MSSA): >4 | Minimal Inhibitory Concentration (MIC) (Morganella morganii; test organism 35, Morganella morganii): 1 | Minimal Inhibitory Concentration (MIC) (Morganella morganii; test organism 36, Morganella morganii): 2 | Minimal Inhibitory Concentration (MIC) (Pseudomonas aeruginosa; test organism 37, Pseudomonas aeruginosa): >4 | Minimal Inhibitory Concentration (MIC) (Pseudomonas aeruginosa; test organism 38, Pseudomonas aeruginosa): >4 | Minimal Inhibitory Concentration (MIC) (Serratia marcescens; test organism 39, Serratia marcescens): 4 | Minimal Inhibitory Concentration (MIC) (Serratia marcescens; test organism 40, Serratia marcescens): 4 | Minimal Inhibitory Concentration (MIC) (Staphylococcus aureus; test organism 1, Staphylococcus aureus): 0.125 | Minimal Inhibitory Concentration (MIC) (Staphylococcus aureus; test organism 2, Staphylococcus aureus): ≦0.25 | Minimal Inhibitory Concentration (MIC) ([2]; test organism 7, Staphylococcus epidermidis): 2 | Minimal Inhibitory Concentration (MIC) ([2]; test organism 8, Staphylococcus epidermidis): >2 | Minimal Inhibitory Concentration (MIC) ([3]; test organism 12, Staphylococcus haemolyticus): 1 | Minimal Inhibitory Concentration (MIC) ([3]; test organism 13, Staphylococcus haemolyticus): >4 | Minimal Inhibitory Concentration (MIC) ([3]; test organism 14, Staphylococcus haemolyticus): >4 | Minimal Inhibitory Concentration (MIC) ([4]; test organism 41, Stenotrophomonas maltophilia): >4 | Minimal Inhibitory Concentration (MIC) ([4]; test organism 42, Stenotrophomonas maltophilia): 2 | Minimal Inhibitory Concentration (MIC) (Streptococcus mitis; test organism 21, Streptococcus mitis): ≦0.25 | Minimal Inhibitory Concentration (MIC) (Streptococcus mitis; test organism 22, Streptococcus mitis): 0.5 | Minimal Inhibitory Concentration (MIC) (Streptococcus mitis; test organism 23, Streptococcus mitis): >4 | Minimal Inhibitory Concentration (MIC) (Streptococcus pneumoniae; test organism 19, Streptococcus pneumoniae): 0.5 | Minimal Inhibitory Concentration (MIC) (Streptococcus pneumoniae; test organism 20, Streptococcus pneumoniae): ≦0.25
